Series [1] addresses NDM-1 (Klebsiella pneumoniae, UniProt C7C422). Kind of series: biochemical. Type of series: biochemical. The settings on record: fluorescence assay, CCF2-FA substrate, 1 pM enzyme, 2 hours at 25° C.; read-out: NDM-1 IC50. In a few lines: (§1)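 Two-hour, 25° C incubation of enzyme with inhibitor and CCF2-FA (7-hydroxycoumarin–cephalosporin–fluorescein). Fluorescence read-out; IC50 via 4-parameter fit.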

Series [2] has as its target IMP-1 (Serratia marcescens, UniProt P52699). Kind of series: biochemical. Type of series: biochemical. Conditions: CCF2-FA substrate, 2 pM enzyme, 2 hours at 25° C. Summed up: as §1
Series [3] concerns Escherichia coli expressing NDM-1 (CLB30005, CLB30016). Type of series: cell-based. Conditions: with imipenem 1 μg/ml; for Escherichia coli expressing NDM-1 (CLB30016) MITC95: 95% inhibition of bacterial growth. Summed up:
(§2)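 Growth by absorbance after 22–24 h at 35°C defined the read-out, with imipenem fixed at 1 μg/ml alongside compound. Inocula came from overnight blood-agar colonies at 35°C, resuspended in saline and diluted 1:100 in 1.1×CAMHB.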

The test system of series [4] is Serratia marcescens expressing IMP-1 (CL5741). Format: cell-based. The settings on record: for Serratia marcescens expressing IMP-1 (CL5741) MITC95: with imipenem 1 μg/ml, 95% inhibition of bacterial growth. In a few lines: as §2
Series [5] deals with Klebsiella pneumoniae expressing VIM-1 (IHMA599644). Type of series: cell-based. Conditions: for Klebsiella pneumoniae expressing VIM-1 (IHMA599644) MITC95: with imipenem 1 μg/ml, 95% inhibition of bacterial growth. Summed up:
as §2

Series [6] concerns Pseudomonas aeruginosa MB9798 vs MB9799. Conditions: ratio MITC95 PA_9798/MITC95 PA_9799. Summed up:
(§3)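 P. aeruginosa PAO1-derived IMP-1 strains, efflux+ MB9798 and efflux− MB9799, tested by standard microbroth MIC with imipenem and/or ceftazidime fixed, usually at CLSI breakpoint, plus fixed class A/C β-lactamase inhibitor against AmpC. Inhibitor titrated; concentration restoring susceptibility recorded; MB9798/MB9799 fold difference indicates efflux.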

Series [7] has as its target VIM-1 (Pseudomonas aeruginosa (strain ATCC 15692 / DSM 22644 / CIP 104116 / JCM 14847 / LMG 12228 / 1C / PRS 101 / PAO1), UniProt A0A0F7KYQ8). Kind of series: biochemical. Conditions: CCF2-FA substrate, 30 pM enzyme, 2 hours at 25° C. In a few lines: as §1
Series [8] relates to Pseudomonas aeruginosa efflux+ (MB9798), IMP-1. Format: cell-based. The settings on record: concentration restoring susceptibility to imipenem at 2 μg/mL in the presence of a class A, C, D serine β-lactamase inhibitor closely related to relebactam. Summed up: as §3
Series [9] concerns Pseudomonas aeruginosa efflux− (MB9799), IMP-1. Type of series: cell-based. Conditions: concentration restoring susceptibility to imipenem at 2 μg/mL in the presence of a class A, C, D serine β-lactamase inhibitor closely related to relebactam. Summed up:
as §3

[10] abbreviates: fluorescence assay, read-out: IMP-1 IC50.
The mark [11] stands for this setting: fluorescence assay, read-out: VIM-1 IC50.

Where two headings read alike, the source gives them in different places.

Sequence of IMP-1 (P52699 whole entry, looked up, species assumed): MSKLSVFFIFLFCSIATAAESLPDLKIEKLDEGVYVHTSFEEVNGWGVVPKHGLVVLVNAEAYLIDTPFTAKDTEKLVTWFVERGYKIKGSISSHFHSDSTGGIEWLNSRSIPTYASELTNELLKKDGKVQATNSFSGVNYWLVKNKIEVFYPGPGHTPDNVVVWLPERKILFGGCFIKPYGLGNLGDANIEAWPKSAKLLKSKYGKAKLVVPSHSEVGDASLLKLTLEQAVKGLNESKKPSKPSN
Sequence of NDM-1 (C7C422 whole entry, looked up, species assumed): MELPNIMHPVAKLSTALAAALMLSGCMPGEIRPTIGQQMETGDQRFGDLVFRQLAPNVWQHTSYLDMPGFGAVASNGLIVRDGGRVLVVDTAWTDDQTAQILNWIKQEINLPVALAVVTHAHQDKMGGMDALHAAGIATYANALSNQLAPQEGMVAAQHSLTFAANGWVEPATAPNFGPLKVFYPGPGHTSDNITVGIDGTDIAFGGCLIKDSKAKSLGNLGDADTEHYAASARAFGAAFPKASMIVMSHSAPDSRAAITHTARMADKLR

Turning to `Nc1nc2c(-c3ccc(S(=O)(=O)NC[C@@H]4CCNC4)c(S(N)(=O)=O)c3-c3nnn[nH]3)cccc2s1` [Example 75, 4-(2-amino-1,3-benzothiazol-4-yl)-N^1-[(3R)-pyrrolidin-3-ylmethyl]-3-(1H-tetrazol-5-yl)benzene-1,2-disulfonamide], the IC50 (in general, the concentration that inhibits the measured activity by half) was 0.0207 nM in series [1]; 0.158 nM in series [2] (IMP-1 IC50, fluorescence assay); 0.115 nM in series [7] (VIM-1 IC50, fluorescence assay). Also, the “Escherichia coli expressing NDM-1 (CLB30016) MITC95” value in [3] amounted to 1.563 µM. The “Serratia marcescens expressing IMP-1 (CL5741) MITC95” value in series [4] worked out at 1.563 µM. Also, the “Klebsiella pneumoniae expressing VIM-1 (IHMA599644) MITC95” value in series [5] is 3.125 µM. Besides, the Efflux ratio in [6] turned out to be 1.00. Besides, the “P. aeruginosa expressing IMP-1, efflux + (MB9798) MITC95” value in series [8] came to 0.7813 µM. In addition, the “P. aeruginosa expressing IMP-1, efflux − (MB9799) MITC95” value in [9] came out at 0.7813 µM.

In the case of `Nc1nc2c(-c3ccc(S(=O)(=O)N[C@]4(CO)CCNC4)c(S(N)(=O)=O)c3-c3nnn[nH]3)cccc2[nH]1` [Example 177, (R)-4-(2-amino-1H-benzo[d]imidazol-4-yl)-N1-(3-(hydroxymethyl)pyrrolidin-3-yl)-3-(1H-tetrazol-5-yl)benzene-1,2-disulfonamide], the IC50 in [1] amounted to 0.0669 nM; in series [2] (setting [10]), 0.862 nM; in series [7] (setting [11]), 0.246 nM. In addition, the “Escherichia coli expressing NDM-1 (CLB30016) MITC95” value in series [3] amounted to 0.7813 µM. The “Serratia marcescens expressing IMP-1 (CL5741) MITC95” value in series [4] was 1.563 µM. Moreover, the “Klebsiella pneumoniae expressing VIM-1 (IHMA599644) MITC95” value in series [5] was found to be 1.563 µM. In series [6], the Efflux ratio amounted to 0.50. The “P. aeruginosa expressing IMP-1, efflux + (MB9798) MITC95” value in series [8] amounted to 0.7813 µM. For the same molecule, the “P. aeruginosa expressing IMP-1, efflux − (MB9799) MITC95” value in series [9] is 1.563 µM.

As to `COCCNS(=O)(=O)c1ccc(-c2cccc3sc(N)nc23)c(-c2nnn[nH]2)c1S(N)(=O)=O` [Example 24, 4-(2-amino-1,3-benzothiazol-4-yl)-N^1-(2-methoxyethyl)-3-(1H-tetrazol-5-yl)benzene-1,2-disulfonamide], the 50% inhibitory concentration (IC50) in series [1] worked out at 0.0732 nM; in series [2] (setting [10]), 0.235 nM; in series [7] (setting [11]), 0.205 nM. In [3], the “Escherichia coli expressing NDM-1 (CLB30016) MITC95” value turned out to be 25 µM. Besides, in series [4], the “Serratia marcescens expressing IMP-1 (CL5741) MITC95” value is 3.125 µM. The “Klebsiella pneumoniae expressing VIM-1 (IHMA599644) MITC95” value in [5] is 12.5 µM. In [6], the Efflux ratio is recorded as 4.00. The “P. aeruginosa expressing IMP-1, efflux + (MB9798) MITC95” value in series [8] worked out at 12.5 µM. Further, in series [9], the “P. aeruginosa expressing IMP-1, efflux − (MB9799) MITC95” value was determined as 3.125 µM.

For the molecule `NCCNS(=O)(=O)c1ccc(-c2cccc(C(=O)NC[C@@H](N)CO)c2N)c(-c2nn[nH]n2)c1S(N)(=O)=O` [Example 332], the IC50 in [1] came out at 0.661 nM; in series [2] (setting [10]), 3 nM; in series [7] (setting [11]), 0.23 nM. Also, the “Escherichia coli MITC95” value in series [3] (NDM-1 strain, 95% inhibition of growth) turned out to be 1.563 µM. In addition, the “Serratia marcescens MITC95” value in series [4] (IMP-1 strain CL5741, with imipenem 1 μg/ml, 95% inhibition of growth) turned out to be 1.563 µM. In series [5] (VIM-1 strain IHMA599644, with imipenem 1 μg/ml, 95% inhibition of growth), the “Klebsiella pneumoniae MITC95” value stood at 3.125 µM. In addition, the Efflux ratio in series [6] is 1.00. The “P. aeruginosa expressing IMP-1, efflux + (MB9798) MITC95” value in [8] amounted to 1.563 µM. Besides, the “P. aeruginosa expressing IMP-1, efflux − (MB9799) MITC95” value in series [9] was 1.563 µM.

On to `CN1CCC(NS(=O)(=O)c2ccc(-c3cccc4sc(N)nc34)c(-c3nnn[nH]3)c2S(N)(=O)=O)C1` (stereo not drawn) [Example 53, 4-(2-amino-1,3-benzothiazol-4-yl)-N1-(1-methylpyrrolidin-3-yl)-3-(1H-tetrazol-5-yl)benzene-1,2-disulfonamide], for which the IC50 came out at 0.0415 nM in series [1], 0.298 nM in series [2] (setting [10]) and 0.192 nM in [7] (setting [11]). In addition, in [3], the “Escherichia coli expressing NDM-1 (CLB30016) MITC95” value was 3.125 µM. Also, the “Serratia marcescens expressing IMP-1 (CL5741) MITC95” value in series [4] is 1.563 µM. Further, in [5], the “Klebsiella pneumoniae expressing VIM-1 (IHMA599644) MITC95” value was determined as 3.125 µM. Besides, in series [6], the Efflux ratio amounted to 1.00. For the same molecule, in [8], the “P. aeruginosa expressing IMP-1, efflux + (MB9798) MITC95” value was found to be 1.563 µM. In addition, the “P. aeruginosa expressing IMP-1, efflux − (MB9799) MITC95” value in series [9] came to 1.563 µM.

Source of the values: US10221163B2 (priority 2015, dated 2019).
